Legend:
[1] = target: T1, Histamine H1 receptor (Homo sapiens, UniProt P35367); assay type: functional, cell-based
[2] = target: T2, Androgen receptor (Rattus norvegicus, UniProt P15207); assay type: functional
T2 sequence (P15207 whole entry): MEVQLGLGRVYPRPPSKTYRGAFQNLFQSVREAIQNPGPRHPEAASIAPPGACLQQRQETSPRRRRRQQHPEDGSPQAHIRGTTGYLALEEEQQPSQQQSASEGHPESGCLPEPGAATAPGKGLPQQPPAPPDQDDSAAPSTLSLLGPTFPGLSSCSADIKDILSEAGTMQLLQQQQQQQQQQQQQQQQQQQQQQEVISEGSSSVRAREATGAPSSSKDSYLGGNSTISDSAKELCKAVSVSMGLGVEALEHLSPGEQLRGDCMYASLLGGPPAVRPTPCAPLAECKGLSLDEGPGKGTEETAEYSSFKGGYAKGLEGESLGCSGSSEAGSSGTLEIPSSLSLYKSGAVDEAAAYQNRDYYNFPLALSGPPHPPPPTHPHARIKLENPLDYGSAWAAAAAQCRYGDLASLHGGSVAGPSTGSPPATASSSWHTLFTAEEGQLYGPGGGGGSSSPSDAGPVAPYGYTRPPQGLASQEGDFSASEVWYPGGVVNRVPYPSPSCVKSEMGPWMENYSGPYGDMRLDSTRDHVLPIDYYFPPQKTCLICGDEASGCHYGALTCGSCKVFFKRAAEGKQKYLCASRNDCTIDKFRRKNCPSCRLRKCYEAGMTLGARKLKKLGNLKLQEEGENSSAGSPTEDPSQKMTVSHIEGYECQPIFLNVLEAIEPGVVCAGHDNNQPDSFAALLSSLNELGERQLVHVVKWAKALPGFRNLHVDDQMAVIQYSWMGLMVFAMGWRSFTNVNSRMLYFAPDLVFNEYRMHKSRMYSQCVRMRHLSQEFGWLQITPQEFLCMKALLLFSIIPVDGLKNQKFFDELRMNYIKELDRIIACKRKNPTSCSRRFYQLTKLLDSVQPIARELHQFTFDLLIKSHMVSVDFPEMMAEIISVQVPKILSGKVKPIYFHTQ

[3] = target: T2, Androgen receptor; assay type: functional; remark: listed apart in the source
[4] = target: T1, Histamine H1 receptor; assay type: functional, cell-based; remark: listed apart in the source
[5] = target: T3, Thromboxane A2 receptor (Homo sapiens, UniProt P21731); assay type: functional, cell-based
T3 sequence (P21731 whole entry): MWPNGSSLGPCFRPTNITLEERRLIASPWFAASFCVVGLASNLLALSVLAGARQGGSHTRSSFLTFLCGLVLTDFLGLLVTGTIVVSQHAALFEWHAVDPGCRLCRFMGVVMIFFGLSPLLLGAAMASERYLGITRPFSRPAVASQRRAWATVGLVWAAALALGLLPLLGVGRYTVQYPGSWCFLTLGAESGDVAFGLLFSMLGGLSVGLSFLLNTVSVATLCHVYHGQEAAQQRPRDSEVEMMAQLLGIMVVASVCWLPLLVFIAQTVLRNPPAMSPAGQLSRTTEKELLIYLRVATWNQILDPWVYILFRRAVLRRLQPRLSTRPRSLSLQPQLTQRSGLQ

[6] = target: D(1B) dopamine receptor (Homo sapiens, UniProt P21918)
[7] = target: Vascular endothelial growth factor receptor 2 (Homo sapiens, UniProt P35968); assay type: functional
[8] = target: T3, Thromboxane A2 receptor; assay type: functional
[9] = target: Beta-1 adrenergic receptor (Homo sapiens, UniProt P08588); assay type: functional, cell-based
[10] = target: T4, Peroxisome proliferator-activated receptor gamma (Homo sapiens, UniProt P37231); assay type: functional
T4 sequence (P37231 whole entry): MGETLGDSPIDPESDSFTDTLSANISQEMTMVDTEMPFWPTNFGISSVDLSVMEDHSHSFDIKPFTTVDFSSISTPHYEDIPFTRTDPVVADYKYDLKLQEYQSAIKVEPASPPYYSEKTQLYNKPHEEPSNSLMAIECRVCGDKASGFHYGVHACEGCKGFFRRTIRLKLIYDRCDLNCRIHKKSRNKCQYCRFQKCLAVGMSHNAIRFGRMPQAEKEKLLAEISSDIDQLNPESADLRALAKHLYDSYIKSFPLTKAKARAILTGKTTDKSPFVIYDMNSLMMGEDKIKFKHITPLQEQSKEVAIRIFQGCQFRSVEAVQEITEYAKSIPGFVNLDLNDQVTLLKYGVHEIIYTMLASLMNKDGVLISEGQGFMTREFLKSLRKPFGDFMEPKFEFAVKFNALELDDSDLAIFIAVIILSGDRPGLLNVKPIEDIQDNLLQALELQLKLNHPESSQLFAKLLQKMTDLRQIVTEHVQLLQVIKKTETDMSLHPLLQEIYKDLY

[11] = target: T4, Peroxisome proliferator-activated receptor gamma; assay type: functional; remark: listed apart in the source
[12] = target: T5, Muscarinic acetylcholine receptor M2 (Homo sapiens, UniProt P08172)
T5 sequence (P08172 whole entry): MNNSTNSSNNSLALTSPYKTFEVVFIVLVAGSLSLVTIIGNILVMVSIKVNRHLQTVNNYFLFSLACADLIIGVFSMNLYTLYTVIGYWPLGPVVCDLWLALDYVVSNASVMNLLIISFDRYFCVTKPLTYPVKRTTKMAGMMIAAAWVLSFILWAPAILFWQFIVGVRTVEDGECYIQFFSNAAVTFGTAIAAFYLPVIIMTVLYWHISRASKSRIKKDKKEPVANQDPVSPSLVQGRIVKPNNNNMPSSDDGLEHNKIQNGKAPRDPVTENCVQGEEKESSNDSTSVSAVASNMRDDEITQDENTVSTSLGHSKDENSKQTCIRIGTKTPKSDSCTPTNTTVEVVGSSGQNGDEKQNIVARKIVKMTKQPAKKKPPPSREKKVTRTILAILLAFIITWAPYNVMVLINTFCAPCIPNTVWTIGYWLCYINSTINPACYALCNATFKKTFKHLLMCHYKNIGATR

[13] = target: Gamma-aminobutyric acid type B receptor subunit 1 (Homo sapiens, UniProt Q9UBS5)
[14] = target: Sodium channel protein type 5 subunit alpha (Homo sapiens, UniProt Q14524); assay type: functional, cell-based
[15] = target: Hydroxycarboxylic acid receptor 2 (Homo sapiens, UniProt Q8TDS4)
[16] = target: Synaptic vesicular amine transporter (Rattus norvegicus, UniProt Q01827); assay type: functional
Note: assay procedure not described here.

T1 sequence (P35367 whole entry): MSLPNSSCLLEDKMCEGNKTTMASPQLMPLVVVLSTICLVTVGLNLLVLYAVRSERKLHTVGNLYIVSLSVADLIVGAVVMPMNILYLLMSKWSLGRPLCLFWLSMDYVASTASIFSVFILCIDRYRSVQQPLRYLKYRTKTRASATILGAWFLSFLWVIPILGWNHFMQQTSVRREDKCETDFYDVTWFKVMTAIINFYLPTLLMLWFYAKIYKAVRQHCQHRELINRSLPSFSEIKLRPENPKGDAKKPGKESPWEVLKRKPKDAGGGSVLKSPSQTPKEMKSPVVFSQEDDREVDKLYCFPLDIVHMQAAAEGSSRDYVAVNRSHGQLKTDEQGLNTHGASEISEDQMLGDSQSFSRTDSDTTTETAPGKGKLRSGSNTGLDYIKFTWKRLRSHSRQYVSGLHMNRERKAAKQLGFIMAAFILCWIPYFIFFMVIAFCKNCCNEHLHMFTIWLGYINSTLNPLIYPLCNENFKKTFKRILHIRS
Chain of Beta-1 adrenergic receptor (P08588 whole entry): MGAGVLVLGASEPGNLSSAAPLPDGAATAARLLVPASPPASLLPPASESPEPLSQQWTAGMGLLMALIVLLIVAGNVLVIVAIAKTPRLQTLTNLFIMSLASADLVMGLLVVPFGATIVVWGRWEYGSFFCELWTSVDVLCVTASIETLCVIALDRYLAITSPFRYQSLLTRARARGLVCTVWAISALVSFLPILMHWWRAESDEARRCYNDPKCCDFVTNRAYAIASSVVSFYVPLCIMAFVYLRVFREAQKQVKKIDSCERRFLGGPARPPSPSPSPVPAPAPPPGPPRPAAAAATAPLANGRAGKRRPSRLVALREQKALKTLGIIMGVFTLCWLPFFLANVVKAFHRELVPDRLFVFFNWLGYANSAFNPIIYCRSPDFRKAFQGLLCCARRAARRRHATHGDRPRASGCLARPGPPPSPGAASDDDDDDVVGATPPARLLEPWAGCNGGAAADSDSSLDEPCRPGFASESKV
Chain of Gamma-aminobutyric acid type B receptor subunit 1 (Q9UBS5 whole entry): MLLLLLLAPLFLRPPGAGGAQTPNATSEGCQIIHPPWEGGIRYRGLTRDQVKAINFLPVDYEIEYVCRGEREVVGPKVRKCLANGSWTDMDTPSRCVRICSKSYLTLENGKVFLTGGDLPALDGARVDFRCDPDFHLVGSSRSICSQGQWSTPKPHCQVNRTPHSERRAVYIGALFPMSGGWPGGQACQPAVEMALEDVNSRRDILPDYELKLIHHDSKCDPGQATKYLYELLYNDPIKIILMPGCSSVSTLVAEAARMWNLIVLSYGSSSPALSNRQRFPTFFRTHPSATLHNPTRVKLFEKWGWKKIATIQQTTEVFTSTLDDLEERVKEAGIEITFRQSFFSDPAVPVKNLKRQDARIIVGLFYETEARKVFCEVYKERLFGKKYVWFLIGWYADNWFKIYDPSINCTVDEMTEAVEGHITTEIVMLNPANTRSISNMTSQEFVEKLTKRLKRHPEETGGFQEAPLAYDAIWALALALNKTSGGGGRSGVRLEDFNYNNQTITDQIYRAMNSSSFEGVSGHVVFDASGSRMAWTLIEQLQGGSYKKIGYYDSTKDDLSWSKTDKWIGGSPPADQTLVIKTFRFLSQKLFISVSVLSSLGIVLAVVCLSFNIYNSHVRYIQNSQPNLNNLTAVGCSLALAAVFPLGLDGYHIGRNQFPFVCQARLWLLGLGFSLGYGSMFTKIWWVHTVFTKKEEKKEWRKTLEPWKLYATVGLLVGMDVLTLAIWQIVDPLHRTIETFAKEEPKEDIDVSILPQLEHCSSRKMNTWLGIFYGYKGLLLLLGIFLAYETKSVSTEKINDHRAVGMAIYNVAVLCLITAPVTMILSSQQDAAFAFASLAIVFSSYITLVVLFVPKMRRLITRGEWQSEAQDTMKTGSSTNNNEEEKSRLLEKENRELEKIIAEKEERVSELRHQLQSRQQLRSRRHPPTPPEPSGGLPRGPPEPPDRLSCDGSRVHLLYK
Chain of D(1B) dopamine receptor (P21918 whole entry): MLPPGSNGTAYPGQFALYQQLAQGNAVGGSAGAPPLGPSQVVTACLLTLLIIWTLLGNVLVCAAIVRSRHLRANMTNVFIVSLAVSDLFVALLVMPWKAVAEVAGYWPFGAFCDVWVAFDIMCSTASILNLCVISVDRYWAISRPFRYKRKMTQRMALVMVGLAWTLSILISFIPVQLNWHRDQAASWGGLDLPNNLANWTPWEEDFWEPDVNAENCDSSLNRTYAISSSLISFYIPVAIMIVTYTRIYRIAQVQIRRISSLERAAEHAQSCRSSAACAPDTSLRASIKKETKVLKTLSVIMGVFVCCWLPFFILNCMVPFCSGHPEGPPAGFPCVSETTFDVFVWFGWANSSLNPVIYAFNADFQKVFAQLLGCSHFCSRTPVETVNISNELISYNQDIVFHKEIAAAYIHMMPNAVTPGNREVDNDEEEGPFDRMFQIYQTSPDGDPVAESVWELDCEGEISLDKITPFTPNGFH
Chain of Vascular endothelial growth factor receptor 2 (P35968 whole entry): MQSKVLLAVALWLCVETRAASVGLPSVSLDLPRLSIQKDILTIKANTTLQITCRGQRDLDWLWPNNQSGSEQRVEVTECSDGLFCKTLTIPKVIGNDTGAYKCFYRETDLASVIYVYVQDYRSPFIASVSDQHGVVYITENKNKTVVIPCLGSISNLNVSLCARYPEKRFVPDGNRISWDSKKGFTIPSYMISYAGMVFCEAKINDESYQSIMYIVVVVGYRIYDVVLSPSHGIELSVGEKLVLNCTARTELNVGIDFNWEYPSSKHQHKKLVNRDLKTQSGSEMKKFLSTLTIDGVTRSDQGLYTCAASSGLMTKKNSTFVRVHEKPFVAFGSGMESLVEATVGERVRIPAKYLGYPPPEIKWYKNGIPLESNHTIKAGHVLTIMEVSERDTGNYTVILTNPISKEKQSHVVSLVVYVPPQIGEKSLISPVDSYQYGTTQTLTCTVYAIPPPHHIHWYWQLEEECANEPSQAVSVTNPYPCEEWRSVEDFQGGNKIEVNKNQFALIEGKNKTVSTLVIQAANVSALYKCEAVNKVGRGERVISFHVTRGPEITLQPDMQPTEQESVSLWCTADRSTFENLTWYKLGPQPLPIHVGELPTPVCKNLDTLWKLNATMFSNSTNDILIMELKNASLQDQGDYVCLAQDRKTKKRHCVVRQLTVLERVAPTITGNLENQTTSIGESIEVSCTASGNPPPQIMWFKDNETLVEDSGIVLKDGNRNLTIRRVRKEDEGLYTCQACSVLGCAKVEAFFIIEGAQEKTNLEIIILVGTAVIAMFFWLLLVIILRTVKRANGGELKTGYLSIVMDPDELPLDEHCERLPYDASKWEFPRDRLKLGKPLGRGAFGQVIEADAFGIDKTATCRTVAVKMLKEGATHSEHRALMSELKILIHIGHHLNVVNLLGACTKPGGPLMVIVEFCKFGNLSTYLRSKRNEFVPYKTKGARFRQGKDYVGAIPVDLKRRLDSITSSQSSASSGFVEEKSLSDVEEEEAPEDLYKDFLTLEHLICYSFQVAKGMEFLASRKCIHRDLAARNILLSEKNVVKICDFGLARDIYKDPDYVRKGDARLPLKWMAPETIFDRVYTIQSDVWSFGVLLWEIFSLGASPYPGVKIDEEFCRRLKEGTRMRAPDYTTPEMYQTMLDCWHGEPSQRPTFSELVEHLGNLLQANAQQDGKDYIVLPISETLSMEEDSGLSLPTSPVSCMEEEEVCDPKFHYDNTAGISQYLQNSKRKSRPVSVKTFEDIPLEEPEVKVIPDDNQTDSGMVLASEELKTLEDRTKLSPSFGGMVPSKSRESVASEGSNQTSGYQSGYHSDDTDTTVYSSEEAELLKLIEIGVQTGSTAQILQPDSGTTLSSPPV
Chain of Hydroxycarboxylic acid receptor 2 (Q8TDS4 whole entry): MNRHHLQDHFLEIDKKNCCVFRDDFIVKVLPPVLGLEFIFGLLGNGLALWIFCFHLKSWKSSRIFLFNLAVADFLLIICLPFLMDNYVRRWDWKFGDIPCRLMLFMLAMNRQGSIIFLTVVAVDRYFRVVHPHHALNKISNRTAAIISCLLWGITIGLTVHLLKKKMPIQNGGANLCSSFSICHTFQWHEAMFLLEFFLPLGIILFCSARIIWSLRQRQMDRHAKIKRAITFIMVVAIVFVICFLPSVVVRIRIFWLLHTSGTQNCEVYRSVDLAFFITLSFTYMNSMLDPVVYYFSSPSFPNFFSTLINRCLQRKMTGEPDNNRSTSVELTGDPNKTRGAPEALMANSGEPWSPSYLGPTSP
Chain of Synaptic vesicular amine transporter (Q01827 whole entry): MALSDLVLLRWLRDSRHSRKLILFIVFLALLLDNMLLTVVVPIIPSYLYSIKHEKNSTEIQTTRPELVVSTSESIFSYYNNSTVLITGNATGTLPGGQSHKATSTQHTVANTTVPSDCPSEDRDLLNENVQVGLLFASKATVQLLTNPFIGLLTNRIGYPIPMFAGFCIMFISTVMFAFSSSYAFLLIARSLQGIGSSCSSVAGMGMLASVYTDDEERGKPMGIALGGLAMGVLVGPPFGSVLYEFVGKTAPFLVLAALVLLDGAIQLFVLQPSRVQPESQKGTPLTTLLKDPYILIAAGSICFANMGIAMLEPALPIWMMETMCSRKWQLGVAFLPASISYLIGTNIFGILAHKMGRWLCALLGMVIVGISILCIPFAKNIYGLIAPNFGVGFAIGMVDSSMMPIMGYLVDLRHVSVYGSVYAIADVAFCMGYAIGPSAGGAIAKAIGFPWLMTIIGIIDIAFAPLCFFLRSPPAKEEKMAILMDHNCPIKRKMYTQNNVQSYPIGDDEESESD

CCCC(=O)N1CCCN(c2nc(N)c3cc(OC)c(OC)cc3n2)CC1 [BUNAZOSIN]
AC50 [1]: > 30 µM
AC50 [2]: > 30 µM
AC50 [3]: > 30 µM
AC50 [4]: > 30 µM

O=C(Nc1ccccc1)OCC(CN1CCCCC1)OC(=O)Nc1ccccc1 (configuration not stated) [DIPERODON]
AC50 [5]: > 30 µM
AC50 [6]: > 10 µM
AC50 [7]: > 30 µM
AC50 [8]: > 30 µM

C=C1C[C@@H]2[C@H](CC[C@]3(C)C(=O)CC[C@@H]23)[C@@]2(C)C=CC(=O)C=C12 [EXEMESTANE]
AC50 [1]: > 30 µM
AC50 [4]: > 30 µM

CC(C(O)c1ccc(O)cc1)N1CCC(Cc2ccccc2)CC1 (configuration not stated) [IFENPRODIL]
AC50 [9]: > 30 µM

CS(=O)(=O)Nc1cc2occ(NC=O)c(=O)c2cc1Oc1ccccc1 [IGURATIMOD]
AC50 [2]: > 30 µM

CN(CCCN1c2ccccc2CCc2ccccc21)CC(=O)c1ccc(Cl)cc1 [LOFEPRAMINE]
AC50 [9]: > 30 µM

CC(=O)O[C@]1(C(C)=O)CC[C@H]2[C@@H]3C[C@H](C)C4=CC(=O)CC[C@]4(C)[C@H]3CC[C@@]21C [MEDROXYPROGESTERONE ACETATE]
AC50 [10]: > 30 µM
AC50 [11]: > 30 µM

CC(=O)OC(C)C[N+](C)(C)C (configuration not stated) [METHACHOLINE]
AC50 [12]: 9.7 µM

CN(C)CCCN1c2ccccc2Sc2ccccc21 [PROMAZINE]
AC50 [6]: 5.78 µM

O=P(O)(O)C(O)(Cc1cccnc1)P(=O)(O)O [RISEDRONIC ACID]
AC50 [13]: > 10 µM
AC50 [14]: > 30 µM

O=C1CCC(N2C(=O)c3ccccc3C2=O)C(=O)N1 (configuration not stated) [THALIDOMIDE]
AC50 [15]: > 10 µM
AC50 [13]: > 10 µM

COc1cc2c(cc1OC)[C@H]1C[C@@H](OC(=O)[C@@H](N)C(C)C)[C@H](CC(C)C)CN1CC2 [VALBENAZINE]
AC50 [16]: 460 nM
